Assay [1] addresses Tyrosine-protein kinase BTK (Homo sapiens, UniProt Q06187). Kind of assay: Selectivity interaction (KinomeScan (DiscoverX)) EUB0000666a BTK. The following applies: at 10 µM.
Assay [2] deals with T1, Casein kinase I isoform alpha-like (Homo sapiens) (UniProt Q8N752).
T1 sequence (whole entry): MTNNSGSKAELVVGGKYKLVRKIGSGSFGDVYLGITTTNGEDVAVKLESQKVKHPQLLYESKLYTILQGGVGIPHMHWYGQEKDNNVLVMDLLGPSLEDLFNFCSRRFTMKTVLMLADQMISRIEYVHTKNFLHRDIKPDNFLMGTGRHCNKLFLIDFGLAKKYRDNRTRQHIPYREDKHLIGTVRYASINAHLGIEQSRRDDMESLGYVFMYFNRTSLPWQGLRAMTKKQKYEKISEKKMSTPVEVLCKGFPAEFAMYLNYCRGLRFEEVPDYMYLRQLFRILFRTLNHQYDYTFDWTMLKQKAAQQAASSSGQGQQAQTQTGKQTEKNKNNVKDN
Kind of assay: Selectivity interaction (KinomeScan (DiscoverX)) EUB0000666a CSNK1A1L. The following applies: at 10 µM.

In assay [3] the target is Ribosomal protein S6 kinase alpha-1 (Homo sapiens, UniProt Q15418). Kind of assay: Selectivity interaction (SelectScreen profiling (Invitrogen)) EUB0000607a RPS6KA1. The following applies: at 2 µM.
Sequence of Ribosomal protein S6 kinase alpha-1 (Q15418 whole entry): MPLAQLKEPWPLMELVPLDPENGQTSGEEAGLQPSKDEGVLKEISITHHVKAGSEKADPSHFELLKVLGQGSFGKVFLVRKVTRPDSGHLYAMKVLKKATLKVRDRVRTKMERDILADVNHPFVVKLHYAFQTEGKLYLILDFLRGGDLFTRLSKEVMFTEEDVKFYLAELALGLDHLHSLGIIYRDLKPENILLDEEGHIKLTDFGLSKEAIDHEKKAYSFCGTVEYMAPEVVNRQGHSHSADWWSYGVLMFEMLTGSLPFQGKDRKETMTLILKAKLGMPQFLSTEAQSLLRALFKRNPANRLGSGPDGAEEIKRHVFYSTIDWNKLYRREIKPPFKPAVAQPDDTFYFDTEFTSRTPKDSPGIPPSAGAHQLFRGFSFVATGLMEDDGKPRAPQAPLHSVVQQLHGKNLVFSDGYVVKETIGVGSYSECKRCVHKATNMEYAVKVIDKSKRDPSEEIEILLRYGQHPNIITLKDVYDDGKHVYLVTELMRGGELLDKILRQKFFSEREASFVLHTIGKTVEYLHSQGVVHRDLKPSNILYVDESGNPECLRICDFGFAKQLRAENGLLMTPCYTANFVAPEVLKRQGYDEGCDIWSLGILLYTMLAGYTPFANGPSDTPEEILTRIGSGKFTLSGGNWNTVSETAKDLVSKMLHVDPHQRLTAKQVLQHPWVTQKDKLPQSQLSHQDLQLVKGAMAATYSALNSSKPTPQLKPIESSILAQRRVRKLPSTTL
Assay [4] deals with Mitogen-activated protein kinase kinase kinase 11 (Homo sapiens) (UniProt Q16584). The conditions noted are these: at 10 µM.
Sequence of Mitogen-activated protein kinase kinase kinase 11 (Homo sapiens) (Q16584 whole entry, looked up): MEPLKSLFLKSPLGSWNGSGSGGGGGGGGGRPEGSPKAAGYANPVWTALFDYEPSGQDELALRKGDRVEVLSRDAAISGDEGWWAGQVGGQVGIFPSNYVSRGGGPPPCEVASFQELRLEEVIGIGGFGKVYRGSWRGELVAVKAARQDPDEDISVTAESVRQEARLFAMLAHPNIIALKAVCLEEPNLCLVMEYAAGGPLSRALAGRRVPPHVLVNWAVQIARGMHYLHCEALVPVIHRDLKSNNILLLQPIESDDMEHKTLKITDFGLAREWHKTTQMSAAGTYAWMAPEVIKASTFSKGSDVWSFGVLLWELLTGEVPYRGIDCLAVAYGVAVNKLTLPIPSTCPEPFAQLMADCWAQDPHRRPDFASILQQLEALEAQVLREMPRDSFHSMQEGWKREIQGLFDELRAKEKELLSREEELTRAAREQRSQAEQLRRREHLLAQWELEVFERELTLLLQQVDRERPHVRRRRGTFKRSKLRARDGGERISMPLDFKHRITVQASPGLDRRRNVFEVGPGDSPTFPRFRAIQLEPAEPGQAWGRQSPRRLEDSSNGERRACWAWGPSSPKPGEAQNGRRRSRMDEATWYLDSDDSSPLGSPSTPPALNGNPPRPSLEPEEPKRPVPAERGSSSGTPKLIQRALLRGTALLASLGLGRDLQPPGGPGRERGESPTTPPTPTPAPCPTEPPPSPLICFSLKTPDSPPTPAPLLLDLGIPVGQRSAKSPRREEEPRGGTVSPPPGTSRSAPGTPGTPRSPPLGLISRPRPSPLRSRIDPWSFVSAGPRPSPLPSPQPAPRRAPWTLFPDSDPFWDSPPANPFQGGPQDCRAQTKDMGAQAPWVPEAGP
Assay [5] deals with Dual specificity mitogen-activated protein kinase kinase 2 (Homo sapiens) (UniProt P36507). Description: Selectivity interaction (ActivX KiNativ screen (kinase selectivity in THP-1 cell lysates)) EUB0000639a MAP2K2. Format: subcellular. The following applies: lysate.
Sequence of Dual specificity mitogen-activated protein kinase kinase 2 (Homo sapiens) (P36507 whole entry): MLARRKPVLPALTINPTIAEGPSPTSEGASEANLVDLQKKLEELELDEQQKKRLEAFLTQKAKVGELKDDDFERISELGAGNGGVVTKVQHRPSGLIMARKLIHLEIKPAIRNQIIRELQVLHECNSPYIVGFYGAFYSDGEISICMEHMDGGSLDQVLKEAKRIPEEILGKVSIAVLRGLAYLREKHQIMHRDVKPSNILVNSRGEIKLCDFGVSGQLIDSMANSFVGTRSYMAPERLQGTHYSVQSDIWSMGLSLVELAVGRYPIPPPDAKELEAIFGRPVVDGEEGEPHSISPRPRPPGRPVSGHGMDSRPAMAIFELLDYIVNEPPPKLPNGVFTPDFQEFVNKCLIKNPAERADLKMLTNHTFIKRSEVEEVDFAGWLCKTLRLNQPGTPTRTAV
Assay [6] concerns the target RAF proto-oncogene serine/threonine-protein kinase (Homo sapiens) (UniProt P04049). Kind of assay: Selectivity interaction (Kinase panel (Invitrogen)) EUB0000639a RAF1. The conditions noted are these: at 200 nM.
Assay [7] deals with T2, Serine/threonine-protein kinase 17A (Homo sapiens) (UniProt Q9UEE5).
T2 sequence (whole entry): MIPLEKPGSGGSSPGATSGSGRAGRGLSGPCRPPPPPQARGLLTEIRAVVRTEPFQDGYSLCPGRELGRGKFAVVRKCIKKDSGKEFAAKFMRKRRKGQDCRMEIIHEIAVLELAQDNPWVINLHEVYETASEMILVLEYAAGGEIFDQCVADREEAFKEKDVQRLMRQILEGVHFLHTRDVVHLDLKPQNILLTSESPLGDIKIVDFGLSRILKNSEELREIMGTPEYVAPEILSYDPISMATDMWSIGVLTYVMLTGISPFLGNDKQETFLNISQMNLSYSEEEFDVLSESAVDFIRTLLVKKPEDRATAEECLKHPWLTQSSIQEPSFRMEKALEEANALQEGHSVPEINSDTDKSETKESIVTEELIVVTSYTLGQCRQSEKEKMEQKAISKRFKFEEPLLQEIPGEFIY
Description: Selectivity interaction (Kinase panel (DSF assay)) EUB0001559a STK17A. In general terms: DSF heats the sample and reads unfolding from a dye or from intrinsic fluorescence.

The target in assay [8] is Serine/threonine-protein kinase MRCK alpha (Homo sapiens) (UniProt Q5VT25). Kind of assay: Selectivity interaction (KinomeScan (DiscoverX)) EUB0000045b CDC42BPA.
Sequence of Serine/threonine-protein kinase MRCK alpha (Homo sapiens) (Q5VT25 whole entry): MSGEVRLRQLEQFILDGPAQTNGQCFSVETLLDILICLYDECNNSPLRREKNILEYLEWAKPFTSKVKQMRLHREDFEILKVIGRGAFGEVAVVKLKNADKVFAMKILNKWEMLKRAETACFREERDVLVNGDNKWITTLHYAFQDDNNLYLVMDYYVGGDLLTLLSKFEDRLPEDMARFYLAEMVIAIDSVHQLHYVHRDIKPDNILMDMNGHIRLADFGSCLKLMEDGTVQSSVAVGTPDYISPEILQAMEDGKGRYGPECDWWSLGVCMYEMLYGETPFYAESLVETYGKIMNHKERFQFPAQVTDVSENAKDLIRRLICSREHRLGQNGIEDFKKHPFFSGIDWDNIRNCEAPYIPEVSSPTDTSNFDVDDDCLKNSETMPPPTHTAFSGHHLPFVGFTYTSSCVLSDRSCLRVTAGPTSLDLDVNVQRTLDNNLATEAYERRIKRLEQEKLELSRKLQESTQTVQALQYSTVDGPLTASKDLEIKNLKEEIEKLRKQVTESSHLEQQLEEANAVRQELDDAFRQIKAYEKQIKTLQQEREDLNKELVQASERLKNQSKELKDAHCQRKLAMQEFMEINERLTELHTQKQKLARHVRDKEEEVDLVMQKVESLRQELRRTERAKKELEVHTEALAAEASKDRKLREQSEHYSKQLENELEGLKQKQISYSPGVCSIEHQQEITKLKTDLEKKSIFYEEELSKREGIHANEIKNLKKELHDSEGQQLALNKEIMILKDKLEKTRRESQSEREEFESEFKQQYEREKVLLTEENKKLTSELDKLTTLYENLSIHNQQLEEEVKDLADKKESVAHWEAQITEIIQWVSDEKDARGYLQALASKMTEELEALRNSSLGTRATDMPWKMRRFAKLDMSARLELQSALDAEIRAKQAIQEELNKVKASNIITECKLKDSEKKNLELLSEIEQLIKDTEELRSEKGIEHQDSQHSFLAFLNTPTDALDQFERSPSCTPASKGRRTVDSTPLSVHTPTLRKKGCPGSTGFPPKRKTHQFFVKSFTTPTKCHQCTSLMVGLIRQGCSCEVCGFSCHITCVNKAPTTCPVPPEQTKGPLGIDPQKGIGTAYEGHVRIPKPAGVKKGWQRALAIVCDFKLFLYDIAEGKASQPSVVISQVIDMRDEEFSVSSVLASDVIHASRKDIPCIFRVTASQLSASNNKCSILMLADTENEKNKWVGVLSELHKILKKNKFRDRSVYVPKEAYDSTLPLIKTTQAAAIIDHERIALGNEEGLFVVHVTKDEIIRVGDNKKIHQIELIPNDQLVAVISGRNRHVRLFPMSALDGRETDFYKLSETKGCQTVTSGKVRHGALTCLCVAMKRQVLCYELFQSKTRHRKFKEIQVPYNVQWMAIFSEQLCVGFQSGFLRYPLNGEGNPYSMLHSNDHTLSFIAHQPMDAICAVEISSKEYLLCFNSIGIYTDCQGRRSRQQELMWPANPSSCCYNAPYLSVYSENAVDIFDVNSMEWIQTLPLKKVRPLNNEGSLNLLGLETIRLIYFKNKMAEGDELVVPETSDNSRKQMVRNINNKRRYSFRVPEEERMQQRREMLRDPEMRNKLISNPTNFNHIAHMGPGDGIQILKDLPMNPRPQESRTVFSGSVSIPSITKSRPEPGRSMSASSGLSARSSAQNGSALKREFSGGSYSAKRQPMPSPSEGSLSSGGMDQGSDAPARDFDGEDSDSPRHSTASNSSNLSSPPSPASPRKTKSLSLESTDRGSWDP
The target of assay [9] is T3, G protein-coupled receptor kinase 3 (Homo sapiens) (UniProt P35626).
T3 sequence (whole entry): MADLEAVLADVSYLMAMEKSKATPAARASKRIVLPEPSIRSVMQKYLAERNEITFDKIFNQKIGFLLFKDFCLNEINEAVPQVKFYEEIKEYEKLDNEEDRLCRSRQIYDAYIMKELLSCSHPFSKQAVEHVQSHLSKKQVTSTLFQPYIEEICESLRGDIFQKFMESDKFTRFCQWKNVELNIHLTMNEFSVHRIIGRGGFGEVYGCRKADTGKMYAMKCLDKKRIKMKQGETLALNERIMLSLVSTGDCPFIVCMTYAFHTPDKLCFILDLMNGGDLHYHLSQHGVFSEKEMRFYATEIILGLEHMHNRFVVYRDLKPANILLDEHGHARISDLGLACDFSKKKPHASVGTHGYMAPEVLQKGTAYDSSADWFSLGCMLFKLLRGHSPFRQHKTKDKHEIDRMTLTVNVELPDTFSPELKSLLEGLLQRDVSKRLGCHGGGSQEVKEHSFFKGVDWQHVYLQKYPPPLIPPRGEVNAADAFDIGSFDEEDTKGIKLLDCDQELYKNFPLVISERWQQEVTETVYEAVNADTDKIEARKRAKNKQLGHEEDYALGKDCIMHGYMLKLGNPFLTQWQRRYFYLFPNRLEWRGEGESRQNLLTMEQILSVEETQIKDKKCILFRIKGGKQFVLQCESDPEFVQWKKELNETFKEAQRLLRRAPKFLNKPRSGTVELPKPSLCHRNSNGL
Kind of assay: Selectivity interaction (ProQinase) EUB0000171b ADRBK2.

The target of assay [10] is T4, cGMP-dependent protein kinase 2 (Homo sapiens) (UniProt Q13237).
T4 sequence (whole entry): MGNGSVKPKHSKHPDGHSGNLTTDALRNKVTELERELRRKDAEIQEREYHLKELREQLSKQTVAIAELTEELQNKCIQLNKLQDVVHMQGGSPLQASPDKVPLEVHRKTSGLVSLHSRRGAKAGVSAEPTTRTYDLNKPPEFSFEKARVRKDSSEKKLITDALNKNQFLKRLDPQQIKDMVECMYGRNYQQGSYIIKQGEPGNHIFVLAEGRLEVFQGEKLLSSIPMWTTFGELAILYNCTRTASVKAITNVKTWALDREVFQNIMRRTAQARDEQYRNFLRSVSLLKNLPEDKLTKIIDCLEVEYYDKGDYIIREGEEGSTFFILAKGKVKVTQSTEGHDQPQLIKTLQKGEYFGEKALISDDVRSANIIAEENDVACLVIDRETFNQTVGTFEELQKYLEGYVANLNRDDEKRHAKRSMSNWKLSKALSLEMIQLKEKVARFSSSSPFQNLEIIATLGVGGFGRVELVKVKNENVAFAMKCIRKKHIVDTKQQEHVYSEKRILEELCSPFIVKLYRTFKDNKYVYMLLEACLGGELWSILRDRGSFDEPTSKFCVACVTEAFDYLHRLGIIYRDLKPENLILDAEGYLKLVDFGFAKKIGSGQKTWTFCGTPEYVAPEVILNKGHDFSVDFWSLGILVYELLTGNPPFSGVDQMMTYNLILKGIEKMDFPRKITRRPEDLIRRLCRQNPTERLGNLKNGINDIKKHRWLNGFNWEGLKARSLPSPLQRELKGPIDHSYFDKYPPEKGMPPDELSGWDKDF
Kind of assay: Selectivity interaction (KinomeScan (DiscoverX)) EUB0000229b PRKG2. The following applies: at 10 µM.

These results are taken from ChEMBL document CHEMBL5465560, “Selectivity Literature for EUbOPEN Chemogenomic Library” (2024).

Structures are written as SMILES.

Sequence of RAF proto-oncogene serine/threonine-protein kinase (Homo sapiens) (P04049 whole entry): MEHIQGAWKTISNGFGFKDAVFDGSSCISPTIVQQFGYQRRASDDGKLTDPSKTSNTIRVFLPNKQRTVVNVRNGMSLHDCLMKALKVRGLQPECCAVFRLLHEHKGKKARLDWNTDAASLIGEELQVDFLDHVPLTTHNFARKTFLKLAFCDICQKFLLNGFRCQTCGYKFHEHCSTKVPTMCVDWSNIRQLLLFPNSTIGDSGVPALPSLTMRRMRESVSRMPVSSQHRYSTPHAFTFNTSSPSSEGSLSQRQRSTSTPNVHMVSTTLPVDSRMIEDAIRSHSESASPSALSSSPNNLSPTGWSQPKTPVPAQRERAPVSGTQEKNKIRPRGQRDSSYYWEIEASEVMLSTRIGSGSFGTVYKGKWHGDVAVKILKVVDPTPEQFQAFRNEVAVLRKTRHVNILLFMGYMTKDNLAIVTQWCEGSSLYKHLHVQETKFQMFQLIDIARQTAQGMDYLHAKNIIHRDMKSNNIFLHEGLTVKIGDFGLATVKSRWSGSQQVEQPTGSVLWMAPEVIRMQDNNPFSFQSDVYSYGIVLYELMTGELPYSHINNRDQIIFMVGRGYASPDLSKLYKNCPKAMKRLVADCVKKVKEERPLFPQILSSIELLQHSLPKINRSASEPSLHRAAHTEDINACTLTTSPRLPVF
Sequence of Tyrosine-protein kinase BTK (Q06187 whole entry, canonical isoform): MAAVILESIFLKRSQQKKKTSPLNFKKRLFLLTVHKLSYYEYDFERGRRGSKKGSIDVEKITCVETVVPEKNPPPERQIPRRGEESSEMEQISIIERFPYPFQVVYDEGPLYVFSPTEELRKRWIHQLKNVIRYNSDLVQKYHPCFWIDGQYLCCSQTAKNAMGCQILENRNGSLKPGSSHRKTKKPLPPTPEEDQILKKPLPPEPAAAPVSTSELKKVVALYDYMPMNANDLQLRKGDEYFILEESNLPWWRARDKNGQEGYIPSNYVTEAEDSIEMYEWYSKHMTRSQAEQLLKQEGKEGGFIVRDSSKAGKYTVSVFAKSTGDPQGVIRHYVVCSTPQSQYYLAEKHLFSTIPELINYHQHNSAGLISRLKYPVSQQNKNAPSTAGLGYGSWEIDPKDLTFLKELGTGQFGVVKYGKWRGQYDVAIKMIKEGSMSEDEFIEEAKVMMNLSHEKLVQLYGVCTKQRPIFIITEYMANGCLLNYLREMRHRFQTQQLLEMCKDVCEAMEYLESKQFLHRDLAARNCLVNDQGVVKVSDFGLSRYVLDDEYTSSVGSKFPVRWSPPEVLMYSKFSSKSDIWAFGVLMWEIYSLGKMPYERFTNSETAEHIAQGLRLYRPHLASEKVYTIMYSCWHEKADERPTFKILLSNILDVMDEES

As for `O=C(NOC[C@H](O)CO)c1ccc(F)c(F)c1Nc1ccc(I)cc1F`, the % of control was 87% in assay [1] and 80% in assay [2].
As to `CNC(=O)Nc1ccc(-c2nc(N3CC4CCC(C3)O4)c3cnn(C4CCC5(CC4)OCCO5)c3n2)cc1`, the % of inhibition in [3] is 4%.
Molecule `Cc1cc([C@@H](C)Nc2ccccc2C(=O)O)c2nc(N3CCOCC3)cc(=O)n2c1` [AZD-6482] gave a % of control in assay [4] of 100%.
As for `CC[C@@H]1[C@H](F)C(=O)N[C@@H]1COc1nccc2cc(C(N)=O)c(OC)cc12` [ZIMLOVISERTIB], the % of inhibition was -25.6% in assay [5] (at 0.01 µM); -4.8% in assay [5] (at 0.04 µM); -3.6% in [5] (at 0.2 µM); 3.1% in assay [5] (at 1 µM); 18.5% in [5] (at 5 µM); 15.9% in assay [6].
`CN(C(=O)c1cnn2cccnc12)c1cc2c(cc1N1CCOCC1)C(=O)N(C[C@@H](F)C(C)(C)O)C2` registered a dTM in assay [7] of -0.1 K.
As to `C=CC(=O)Nc1cc(-n2c(=O)ccc3cnc4ccc(-c5ccc(NS(C)(=O)=O)cc5)cc4c32)ccc1C`, the % of control in [8] (at 1 µM) came to 100%; in assay [8] (at 10 µM), 96%.
As to `C=CC(=O)Nc1cccc(C(=O)Nc2ccc(Nc3cc(-c4[nH]c(SC)nc4C)ccn3)cc2)c1`, the % of control turned out to be 94% in [9] (at 1 µM) and 95% in [9] (at 5 µM).
In assay [10], `COc1cc(N(C)c2ccnc3ccc(C(F)(F)F)cc23)cc(OC)c1OC` registered a % binding of 78%.
